In patent US6207399A, “Methods of determining endogenous thrombin potential (ETP) and thrombin substrates for use in said methods” (Hemker; Hendrik Coenraad, priority 1995, dated 2001):
Read-outs that look alike come from different tables or passages of the source. Values belong to the molecule of their own block, whether it stands above or below them. Square brackets hold non-standard residues; d marks the D form. Peptide text beside a SMILES is read from it. * marks the point of attachment. pNA = O=[N+]([O-])c1ccc(N*)cc1; Nle = CCCC[CH](N)C(=O)O; Pip = O=C(O)[CH]1CCCCN1; Boc = CC(C)(C)OC(=O)*; Bz = O=C(c1ccccc1)*; CH2Cl = ClC*

Key:
[1] = test system: Factor Xa; conditions: Serbio patent EP-B-0 280 610; cited from earlier work
[2] = test system: thrombin; conditions: Serbio patent EP-B-0 280 610; cited from earlier work
[3] = test system: protein C; conditions: Serbio patent EP-B-0 280 610; cited from earlier work
[4] = test system: plasmin; conditions: Serbio patent EP-B-0 280 610; cited from earlier work
[5] = Water solubility of the substrates; assay type: physicochemical
[6] = test system: thrombin; conditions: Svendsen et al; cited from earlier work
[7] = molecular target: T1, human α-thrombin (Homo sapiens, UniProt P00734); test: Kinetics of hydrolysis of substrates by human α-thrombin in buffer A at 37° C. (Example 2, Table 1); assay type: biochemical
T1 construct: Pure human α-thrombin; gift of Dr. T. Lindhout (University of Limburg, Maastricht)
Procedure: (§1) Kinetic parameters: The hydrolysis experiments were run in buffer A at 37° C. The liberation of p-nitroaniline was monitored at 405 nm in a dual wavelength (405-546 nm) spectrophotometer made in our workshop, using a personal computer for data recording. In a polystyrene microcuvette (total volume 500 μL), buffer A and substrate solution were added to obtain a final substrate concentration between 1 to 2000 μM. After 5 min of incubation at 37° C., enzyme solution was added to achieve a final concentration between 0.5 to 100 nM. The measurement was carried out at 37° C. in a thermostated cuvette-holder. The Michaelis constant (Km) and the catalytic constant (kcat) were obtained by measuring initial reaction velocities at different substrate concentrations. The data obtained were fitted by linear regression on the Michaelis-Menten equation.
(§2) Kinetic parameters: In a preliminary experiment, the substrate was hydrolyzed under the following conditions: enzyme concentration: 10 to 20 nM, substrate concentration: 200 μM in buffer A to get an impression of the initial velocity. […] The results are given in table 1 and 2 for thrombin and factor Xa respectively. The Km and kcat for each substrate were determined from the initial velocities measured for at least six substrate concentrations in the concentration range as given. The enzyme concentration used gives a good signal to noise ratio. The data given are obtained from one or two experiments. The data from table 1 and 2 were only used as the first selection criterion to get a rough impression of the hydrolysis behaviour. Notwithstanding the preliminary character of the measurement it was helpful in the design of the substrates of our interest.

[8] = molecular target: T2, factor Xa (Homo sapiens, UniProt P00742); test: Kinetics of hydrolysis of substrates by human factor Xa in buffer A at 37° C. (Example 2, Table 2); assay type: biochemical
T2 construct: human factor Xa samples; gift of Dr. T. Lindhout (University of Limburg, Maastricht)
Procedure: as §1, §2

[9] = molecular target: T2, factor Xa; test: Kinetic parameters of hydrolysis of the substrates by factor Xa in buffer A at 37° C. (Example 4, Table 3); assay type: biochemical; conditions: buffer A, 37° C., 50 nM factor Xa
In short: (§3)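 p-Nitroaniline release followed at 405 nm in buffer A at 37 °C, with at least six substrate levels of 200–2000 μM. Thrombin at 0.5–50 nM, factor Xa at 50 nM; Km and kcat from initial velocities by linear regression on Michaelis-Menten.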

[10] = molecular target: T3, thrombin (Homo sapiens, UniProt P00734); test: Kinetic parameters of hydrolysis of the substrates by thrombin in buffer A at 37° C. (Example 4, Table 3); assay type: biochemical; set-up: Pure human α-thrombin; gift of Dr. T. Lindhout (University of Limburg, Maastricht); conditions: buffer A, 37° C.
In short: as §3

[11] = molecular target: T3, thrombin; conditions: Angliker et al; cited from earlier work
[12] = molecular target: T1, human α-thrombin; conditions: from Hemker H.C. et al. (1993); cited from earlier work
[13] = molecular target: T2, factor Xa; conditions: entry marked ^a (Hemker et al. 1993, footnote of Table 1); cited from earlier work
[14] = molecular target: T2, factor Xa; conditions: SQ68 reference, same values as Table 2 entry 17; cited from earlier work
[15] = molecular target: T3, thrombin; set-up: Pure human α-thrombin; gift of Dr. T. Lindhout (University of Limburg, Maastricht); conditions: SQ68 reference, same values as Table 1 entry 17 (from Hemker et al. 1993); cited from earlier work

T2 sequence (P00742 41-179 limits assumed): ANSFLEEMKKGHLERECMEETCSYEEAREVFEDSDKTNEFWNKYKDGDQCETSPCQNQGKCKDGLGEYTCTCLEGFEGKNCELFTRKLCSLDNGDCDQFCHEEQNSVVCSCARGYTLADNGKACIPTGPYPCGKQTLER
T2 sequence (P00742 235-488 limits assumed): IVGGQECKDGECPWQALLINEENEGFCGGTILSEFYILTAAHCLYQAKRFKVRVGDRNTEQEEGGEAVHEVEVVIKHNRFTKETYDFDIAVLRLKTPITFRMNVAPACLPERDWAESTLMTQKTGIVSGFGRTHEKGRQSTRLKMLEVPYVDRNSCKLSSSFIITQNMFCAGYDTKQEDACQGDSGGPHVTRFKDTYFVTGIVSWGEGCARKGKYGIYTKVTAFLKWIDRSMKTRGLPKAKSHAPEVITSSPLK

Structure (SMILES): COC(=O)CC(=O)N1CCC[C@H]1C(=O)N[C@@H](CCCNC(=N)N)C(=O)Nc1ccc([N+](=O)[O-])cc1 [CH3 O--CO--CH2 --CO-L-Pro-L-Arg-pNA]
rate of hydrolysis for Factor Xa [1]: 0.14
rate of hydrolysis for thrombin [2]: 0.68
rate of hydrolysis for protein C [3]: 0.83
rate of hydrolysis for plasmin [4]: 0.230

water solubility [5]: restricted water solubility
Structure (SMILES): Cl.N=C(N)NCCC[C@H](NC(=O)CNS(=O)(=O)c1ccc2ccccc2c1)C(=O)Nc1ccc([N+](=O)[O-])cc1 [Substrate 25]

water solubility [5]: restricted water solubility
Structure (SMILES): CCCCC(NC(=O)C1CCCCN1C(=O)C(N)Cc1ccccc1)C(=O)Nc1ccc([N+](=O)[O-])cc1.Cl (centres unmarked) [Substrate 6] (H-Phe-[Pip]-[Nle]-pNA; configuration not given here)

Structure (SMILES): CC(C)[C@H](NC(=O)[C@H](Cc1ccccc1)NC(=O)c1ccccc1)C(=O)N[C@@H](CCCNC(=N)N)C(=O)Nc1ccc([N+](=O)[O-])cc1 [Benzoyl-Phe-Val-Arg-p-nitroanilide] (Bz-Phe-Val-Arg-pNA)
kcat /Km [6]: 90×10^-7 [(NIH units/liter)s]^-1

water solubility [5]: restricted water solubility
Structure (SMILES): CCCC[C@H](NC(=O)[C@@H]1CCCN1C(=O)[C@H](N)Cc1ccccc1)C(=O)Nc1ccc([N+](=O)[O-])cc1.Cl [Substrate 7] (H-[dF]-Pro-[Nle]-pNA)

Km [7]: 1010 µM
kcat [7]: 14.4 s⁻¹
kcat /Km [7]: 14300 M/s
Km [8]: 2570 µM
kcat [8]: 6.42 s⁻¹
kcat /Km [8]: 2500 M/s
Factor Xa kcat [9]: 10.1 s⁻¹
Factor Xa kcat /Km [9]: 2470 M/s
Km [9]: 4080 µM
Km [10]: 1010 µM
Thrombin kcat [10]: 14.4 s⁻¹
Thrombin kcat /Km [10]: 14300 M/s
Structure (SMILES): COC(=O)CC(=O)N[C@H](C(=O)N[C@@H](CCCNC(=N)N)C(=O)Nc1ccc([N+](=O)[O-])cc1)C(C)C.Cl [MZ-Val-Arg-pNA.HCl]
rate of hydrolysis for Factor Xa [1]: 0.03
rate of hydrolysis for thrombin [2]: 0.21
rate of hydrolysis for protein C [3]: 0.12
rate of hydrolysis for plasmin [4]: 0.08

Km [7]: 244 µM
kcat [7]: 11.2 s⁻¹
kcat /Km [7]: 45900 M/s
Km [8]: 959 µM
kcat [8]: 1.90 s⁻¹
kcat /Km [8]: 1980 M/s
Factor Xa kcat [9]: 3.51 s⁻¹
Factor Xa kcat /Km [9]: 1310 M/s
Km [9]: 2680 µM
Km [10]: 244 µM
Thrombin kcat [10]: 11.2 s⁻¹
Thrombin kcat /Km [10]: 45900 M/s
Structure (SMILES): CC(C)[C@H](NC(=O)CNC(=O)OC(C)(C)C)C(=O)N[C@@H](CCCNC(=N)N)C(=O)Nc1ccc([N+](=O)[O-])cc1.Cl [Boc-Gly-Val-Arg-pNA.HCl] (Boc-Gly-Val-Arg-pNA)

Structure (SMILES): CC(=O)NCC(=O)N[C@H](C(=O)N[C@@H](CCCNC(=N)N)C(=O)CCl)C(C)C [Ac-Gly-Val-Arg-CH2 Cl] (Ac-Gly-Val-Arg-CH2Cl)
ki value, times lower than that for D-Phe-Pro-Arg-CH2 Cl [11]: 3×10^4

Structure (SMILES): CC(C)[C@H](NC(=O)c1ccccc1)C(=O)N[C@@H](CCCNC(=N)N)C(=O)Nc1ccc([N+](=O)[O-])cc1 [benzoyl-Val-Arg-p-nitroanilide] (Bz-Val-Arg-pNA)
factor by which poorer substrate for thrombin than Benzoyl-Phe-Val-Arg-p-nitroanilide [6]: ≥ 100

Km [7]: 1640 µM
kcat [7]: 16.54 s⁻¹
kcat /Km [7]: 10100 M/s
Km [8]: 2680 µM
kcat [8]: 3.51 s⁻¹
kcat /Km [8]: 1310 M/s
Factor Xa kcat [9]: 2.84 s⁻¹
Factor Xa kcat /Km [9]: 649 M/s
Km [9]: 4380 µM
Km [10]: 3230 µM
Thrombin kcat [10]: 25.4 s⁻¹
Thrombin kcat /Km [10]: 7880 M/s
Structure (SMILES): CC(C)[C@H](NC(=O)CN)C(=O)N[C@@H](CCCNC(=N)N)C(=O)Nc1ccc([N+](=O)[O-])cc1.Cl.Cl [2HCl.H-Gly-Val-Arg-pNA] (H-Gly-Val-Arg-pNA)

Structure (SMILES): COC(=O)CC(=O)NC(C)(C)C(=O)N[C@@H](CCCNC(=N)N)C(=O)Nc1ccc([N+](=O)[O-])cc1.Cl [MZ-Aib-Arg-pNA.HCl, malonyl-α-aminoisobutyryl-arginine p-nitroanilide methyl ester monohydrochloride]
rate of hydrolysis for Factor Xa [1]: 0.01
Km [12]: 830 µM
kcat [12]: 0.46 s⁻¹
kcat /Km [12]: 554 M/s
rate of hydrolysis for thrombin [2]: 0.04
Km [13]: 3940 µM
kcat [13]: 2.9 s⁻¹
kcat /Km [13]: 738 M/s
rate of hydrolysis for protein C [3]: 0.03
Factor Xa kcat [14]: 2.9 s⁻¹
Factor Xa kcat /Km [14]: 738 M/s
Km [14]: 3940 µM
rate of hydrolysis for plasmin [4]: 0.02
Km [15]: 830 µM
Thrombin kcat [15]: 0.46 s⁻¹
Thrombin kcat /Km [15]: 554 M/s

Structure (SMILES): COC(=O)CC(=O)N1C[C@H](O)C[C@H]1C(=O)N[C@@H](CCCNC(=N)N)C(=O)Nc1ccc([N+](=O)[O-])cc1 [CH3 O--CO--CH2 --CO-L-4Hyp-L-Arg-pNA]
rate of hydrolysis for Factor Xa [1]: 0.34
rate of hydrolysis for thrombin [2]: 0.61
rate of hydrolysis for protein C [3]: 0.88
rate of hydrolysis for plasmin [4]: 1.12

Structure (SMILES): CC(C)[C@H](NC(=O)[C@@H](N)Cc1ccccc1)C(=O)N[C@@H](CCCNC(=N)N)C(=O)Nc1ccc([N+](=O)[O-])cc1 [H-Phe-Val-Arg-p-nitroanilide] (H-Phe-Val-Arg-pNA)
factor by which poorer substrate for thrombin than Benzoyl-Phe-Val-Arg-p-nitroanilide [6]: ≥ 100
